Tested on: MMP-1
Test: Test 2: Analysis of inhibition of MMP-1 expression (MMP-1 ELISA, UVB-irradiated HS68 cells)
Type: cell-based, human
Settings: UVB 30 mJ/cm2, compositions 1% mass concentration (RA 5 μM), 48 h, unirradiated control = 100, UV control = 194
Protocol: Test 2: Analysis of Inhibition of MMP-1 Expression
Human fibrocytes (HS68 cells, purchased from ATCC (Rockville, Md., USA)) were placed in a well plate at a density of 7.5×10^4 cells/well, and incubated in DMEM containing 10% FBS for 24 h, and then washed with PBS (phosphate buffer), followed by the addition of 0.5 ml of PBS therein, the resultant incubated cells were irradiated with ultraviolet rays (UVB30 mJ/cm2) to induce the expression of MMP-1. After the replacement with serum-free DMEM, the resultant product was treated with the compositions (having a mass concentration of 1%) of the examples and the contrast examples. The amount of supernatant obtained after 48 h incubation was determined using an MMP-1 ELISA kit. The human dermal fibroblasts HS68 were treated with ultraviolet rays to increase the expression of MMP-1, and then the resultant HS68 cells were treated with each sample to study whether the expression of MMP-1 was decreased. In the above, retinoic acid (RA, 5 μM, which is known to inhibit the expression of MMP-1) was used as a positive control group.

Compound: CC1=C(/C=C/C(C)=C/C=C/C(C)=C/C(=O)O)C(C)(C)CCC1 [RA, retinoic acid]
- Effect on inhibition of MMP-1 expression: proportions relative to the control group (%): 118%

Source: US20200297617A1, “COMPOSITION FOR SKIN EXTERNAL USE FOR REDUCING WRINKLE AND COSMETIC PRODUCT” (Guangdong Bawei Biotechnology Co., Ltd., priority 2019, published 2020)
